From article PMC5438648, “Identifying the structure-activity relationship of leelamine necessary for inhibiting intracellular cholesterol transport” (Oncotarget, 2017)

Columns and labels:
UACC 903 melanoma cells [1] = experiment: Tumorigenicity assessment, xenografted melanoma tumors; format: in vivo; settings: 80 mg/kg oral daily; UACC 903 xenograft, athymic nu/nu mice
Description: (§1) 1 × 10^6 UACC 903 cells in 0.2 mL of DMEM supplemented with 10% FBS were subcutaneously injected above both left and right rib cages of 4–6 week old female athymic nu/nu mice. Six to eight days later, mice were randomly sorted into vehicle control 10% PEG (Poly ethylene glycol) and experimental compound 4a or leelamine groups, followed by daily oral administration of 80 mg/kg body weight. Volume of developing tumors in mm^3 was measured on alternate days using calipers along with assessment of body weights.

[2] = Body weight and sub-chronic toxicity assessment (blood biomarkers) in tumor-bearing mice; format: in vivo; settings: 80 mg/kg oral daily
Description: as §1
At the end of tumorigenicity assessment, blood was collected from each euthanized animal in a serum separator tube with lithium heparin (BD Microtainer), following cardiac puncture and analyzed for levels of ALT (Alanine aminotransferase), AST (Aspartate aminotransferase), ALKP (Alkaline phosphatase), ALB (Albumin), GLB (Globulin), TPR (Total Protein), TBIL (Total bilirubin), BUN (Blood urea nitrogen), GLU (Glucose), CK (Creatine kinase), CAL (Calcium).

UACC 903 melanoma cells [3] = experiment: MTS cell viability assay, UACC 903 melanoma cells; format: cell-based, human; settings: Homo sapiens, UACC-903, 72 h, 72 hours treatment, read-out: Melanoma cell killing efficacy (IC50 values) UACC 903 (Melanoma cells)
Description: (§2) Dr. Craig Myers, Penn State College of Medicine, Hershey, PA provided normal human fibroblast cell line FF2441. Mutant V600E-BRAF human melanoma cell line 1205 Lu was provided by Dr. Herlyn; Wistar Institute, Philadelphia, PA and UACC 903 was provided by Dr. Mark Nelson; University of Arizona, Tucson, AZ. Cell lines were maintained in a 37°C humidified 5% CO2 atmosphere incubator and periodically monitored for phenotypic, genotypic characteristics, and tumorigenic potential to validate and confirm cell line identity.
(§3) In brief, 5 × 10^3 cells per well in 100 μL of media were seeded and grown in a 96-well plate for 48 to 72 hours and treated with either DMSO vehicle control or 0.62 to 100 μmol/L of compounds for 72 hours. IC50 values for each compound in μmol/L for respective cell lines were measured from three independent experiments using GraphPad Prism version 4.01 (GraphPad Software, La Jolla, CA). In addition, recovery and viability assessment was also measured with these compounds co-treated simultaneously with 10 nmol/L of bafilomycin A1 (BafA1) or 1 mMol/L β-cyclodextrin and the viability was measured using the MTS assay after 24 hours.

melanoma cells = experiment: Autophagic flux: Western blot of p62 and LC3B; format: cell-based, human; settings: Western blotting, 24 hours
Excerpt: (§4) Cell lysates were harvested and processed as described in refs [14, 29, 31, 34]. […] Protein lysates were collected for Western blotting analysis. Blots were probed with antibodies according to each supplier's recommendations: antibodies to IGF-1R, total AKT, phosphor AKT (Ser473), total PRAS40, phospho-PRAS40 (Thr246), total ERK1/2, phospho-ERK1/2 (Thr202/Tyr 204), total CDK2, phospho-CDK2 (Thr160), p62, LC3B, total STAT, phospho-STAT3 (Tyr705), caspase 3 and cleaved PARP from Cell Signaling Technology (Danvers, MA); cyclin D1, α-enolase and secondary antibodies conjugated with horseradish peroxidase from Santa Cruz Biotechnology (Santa Cruz, CA). Immunoblots were developed using the enhanced chemiluminescence (ECL) detection system (Thermo Fisher Scientific, Rockford, IL).

1205 Lu melanoma cells = experiment: MTS cell viability assay, 1205 Lu melanoma cells; format: cell-based, human; settings: Homo sapiens, 1205Lu, 72 h, 72 hours treatment, read-out: Melanoma cell killing efficacy (IC50 values) 1205 Lu (Melanoma cells)
Description: as §2, §3

[4] = tested on: normal human fibroblast cell line FF2441; experiment: MTS cell viability assay, normal fibroblasts; format: cell-based; settings: 72 hours treatment, read-out: Melanoma cell killing efficacy (IC50 values) FF2441 (Normal Cells)
Description: as §2, §3

[5] = tested on: UACC 903 melanoma cell line; experiment: Western blot of signaling pathways (PI3K/AKT, STAT3, MAPK; pERK1/2); format: cell-based, human; settings: active 3-5 μmol/L, inactive 30-50 μmol/L, 24 hours
Excerpt: as §4

CC(C)C1=CC2=CCC3[C@](C)(CN)CCC[C@]3(C)C2CC1 (stereo partly drawn) [4a, [(1R, 4aR)-1,4a-dimethyl-7-(propan-2-yl)-1,2,3,4,4a, 4b, 5,6,10,10a-decahydrophenanthren-1-yl] methanamine]
reduction of tumor volume compared with vehicle control (UACC 903 melanoma cells [1]): 51% | body weights of mice ([2]; 24 days of treatment): No significant differences | blood parameters (ALT, AST, ALKP, ALB, GLB, TPR, TBIL, BUN, GLU, CK and CAL) indicative of organ-related sub-chronic toxicity ([2]; end of study): fell in the normal range | IC50 (UACC 903 melanoma cells [3]): 2100 nM | autophagic flux (p62 and LC3B proteins) (melanoma cells): dose dependently induced accumulation of p62 and LC3B proteins | IC50 (1205 Lu melanoma cells): 2900 nM | IC50 [4]: 8330 ± 400 nM | effect on PI3K/AKT, STAT3 and MAPK signaling pathways [5]: inhibited
